Laboratory results from ChEMBL document CHEMBL1201862, “PubChem BioAssay data set” (2004).
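Tested at 5 concentrations; 48 h exposure; 96-well plates; endpoints linearly interpolated, else capped at highest concentration. Abbreviation: GI50, concentration required for 50% inhibition of growth.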 The source made the active and inactive calls. Rule as the data show it: active = GI50 up to about 1.1 µM and inactive = higher.

Assays:
Test in all cases: growth of human tumour cells (NCI), 48 h
[1] = system: BT-549
[2] = system: LOX IMVI
[3] = system: SW-620
[4] = system: HL-60
[5] = system: Hs-578T
[6] = system: SF-268
[7] = system: NCI-H522
[8] = system: M14
[9] = system: HOP-62
[10] = system: DU-145
[11] = system: RXF 393
[12] = system: NCI/ADR-RES
[13] = system: SF-295
[14] = system: COLO 205
[15] = system: MDA-MB-231
[16] = system: NCI-H460
[17] = system: OVCAR-5
[18] = system: CAKI-1
[19] = system: KM12

Row | SMILES | GI50 [1] | GI50 [2] | GI50 [3] | GI50 [4] | GI50 [5] | GI50 [6] | GI50 [7] | GI50 [8] | GI50 [9] | GI50 [10] | GI50 [11] | GI50 [12] | GI50 [13] | GI50 [14] | GI50 [15] | GI50 [16] | GI50 [17] | GI50 [18] | GI50 [19]
1 | C[C@H]1O[C@@H](c2c(O)ccc3ccccc23)C[C@@H](N(C)C)C1O (some centres not stated) | > 100 µM (inactive) | > 100 µM (inactive) | > 100 µM (inactive) | 85.1 µM (inactive) | 80.4 µM (inactive) | > 100 µM (inactive) | > 100 µM (inactive) | 78.5 µM (inactive) | > 100 µM (inactive) | > 100 µM (inactive) | 20.7 µM (inactive) | > 100 µM (inactive) | > 100 µM (inactive) | 65.3 µM (inactive) | > 100 µM (inactive) | 52.7 µM (inactive) | > 100 µM (inactive) | – | –
2 | CC(=O)O[C@@H]1[C@@H](O)C2=C3[C@]4(C)[C@@H]1C(C)(C)C(=O)C[C@@H]4[C@]3(O)[C@H](OC(C)=O)[C@@]1(C[C@@H]1C)C2=O | 16.1 µM (inactive) | 14.8 µM (inactive) | 18.3 µM (inactive) | 13.6 µM (inactive) | 41.2 µM (inactive) | 25.1 µM (inactive) | 5.18 µM (inactive) | 25.2 µM (inactive) | – | 17.3 µM (inactive) | – | 23.4 µM (inactive) | 20.7 µM (inactive) | 18.4 µM (inactive) | 19.7 µM (inactive) | 15.5 µM (inactive) | 23.7 µM (inactive) | 15.5 µM (inactive) | 16.6 µM (inactive)
3 | c1ccc(Cn2c(-c3ccc(-c4ccccc4)cc3)cc3ccccc32)cc1 | > 100 µM (inactive) | > 100 µM (inactive) | > 100 µM (inactive) | > 100 µM (inactive) | 24.1 µM (inactive) | > 100 µM (inactive) | 28.2 µM (inactive) | > 100 µM (inactive) | > 100 µM (inactive) | > 100 µM (inactive) | – | > 100 µM (inactive) | > 100 µM (inactive) | > 100 µM (inactive) | > 100 µM (inactive) | > 100 µM (inactive) | > 100 µM (inactive) | > 100 µM (inactive) | > 100 µM (inactive)
4 | O=C1C2CC=CCC2C(=O)N1n1c(Cc2ccc(Cl)cc2)n[nH]c1=O (configuration not stated) | > 100 µM (inactive) | > 100 µM (inactive) | > 100 µM (inactive) | > 100 µM (inactive) | > 100 µM (inactive) | > 100 µM (inactive) | > 100 µM (inactive) | > 100 µM (inactive) | > 100 µM (inactive) | > 100 µM (inactive) | > 100 µM (inactive) | > 100 µM (inactive) | > 100 µM (inactive) | > 100 µM (inactive) | > 100 µM (inactive) | – | > 100 µM (inactive) | > 100 µM (inactive) | > 100 µM (inactive)
5 | O=C(O)Cn1cc([N+](=O)[O-])c(=O)c2ccccc21 | > 100 µM (inactive) | – | > 100 µM (inactive) | > 100 µM (inactive) | > 100 µM (inactive) | > 100 µM (inactive) | > 100 µM (inactive) | > 100 µM (inactive) | > 100 µM (inactive) | 57 µM (inactive) | – | > 100 µM (inactive) | > 100 µM (inactive) | 19.5 µM (inactive) | 18.8 µM (inactive) | > 100 µM (inactive) | > 100 µM (inactive) | > 100 µM (inactive) | > 100 µM (inactive)
6 | O=C(Nc1ccccc1)c1cc2c(cc1Cl)SC(NNCCO)=NS2(=O)=O | > 100 µM (inactive) | > 100 µM (inactive) | > 100 µM (inactive) | > 100 µM (inactive) | > 100 µM (inactive) | > 100 µM (inactive) | – | > 100 µM (inactive) | > 100 µM (inactive) | > 100 µM (inactive) | > 100 µM (inactive) | > 100 µM (inactive) | > 100 µM (inactive) | > 100 µM (inactive) | > 100 µM (inactive) | > 100 µM (inactive) | – | > 100 µM (inactive) | > 100 µM (inactive)
7 | CCCCCCNC(=O)c1cnc(Cl)cn1 | 26.2 µM (inactive) | 14.6 µM (inactive) | 15.1 µM (inactive) | 23.8 µM (inactive) | 14.2 µM (inactive) | 14.3 µM (inactive) | 0.206 µM (active) | 13.2 µM (inactive) | 16.1 µM (inactive) | 16.1 µM (inactive) | – | 15.6 µM (inactive) | 18.1 µM (inactive) | 18.4 µM (inactive) | 16.7 µM (inactive) | 19.3 µM (inactive) | 17.3 µM (inactive) | 1.17 µM (inactive) | 15.9 µM (inactive)
8 | CNC(=O)c1cc(NC(=O)N(CCC#N)CCN(C(=O)N[C@@H](Cc2ccccc2)C(=O)N[C@@H](CC(C)C)C(=O)NC)c2ccccc2)ccc1OC | > 69.5 µM (inactive) | 49.3 µM (inactive) | > 100 µM (inactive) | 23.2 µM (inactive) | 58.7 µM (inactive) | 34.2 µM (inactive) | – | > 93.3 µM (inactive) | > 100 µM (inactive) | > 54.8 µM (inactive) | > 54.6 µM (inactive) | > 100 µM (inactive) | > 79.3 µM (inactive) | > 100 µM (inactive) | > 38.3 µM (inactive) | 15.8 µM (inactive) | > 100 µM (inactive) | > 81.1 µM (inactive) | > 62.1 µM (inactive)
9 | OC[C@H]1CC(c2nn[nH]n2)[C@H](O)[C@@H]1O (some centres not stated) | > 100 µM (inactive) | > 100 µM (inactive) | > 100 µM (inactive) | > 100 µM (inactive) | > 100 µM (inactive) | > 100 µM (inactive) | > 100 µM (inactive) | > 100 µM (inactive) | > 100 µM (inactive) | > 100 µM (inactive) | 8.13 µM (inactive) | > 100 µM (inactive) | > 100 µM (inactive) | > 100 µM (inactive) | > 100 µM (inactive) | > 100 µM (inactive) | > 100 µM (inactive) | – | > 100 µM (inactive)
10 | CCc1n[nH]c(=O)n1O | > 100 µM (inactive) | – | > 100 µM (inactive) | > 100 µM (inactive) | > 100 µM (inactive) | > 100 µM (inactive) | > 100 µM (inactive) | – | > 100 µM (inactive) | > 100 µM (inactive) | – | > 100 µM (inactive) | > 100 µM (inactive) | > 100 µM (inactive) | > 100 µM (inactive) | – | – | > 100 µM (inactive) | > 100 µM (inactive)
11 | O=c1[nH]cc(/N=C/c2cc(Cl)ccc2O)c(=O)[nH]1 | 4.84 µM (inactive) | – | – | 4.71 µM (inactive) | 47.2 µM (inactive) | 5.62 µM (inactive) | 31.7 µM (inactive) | 13.8 µM (inactive) | 20.6 µM (inactive) | 21.6 µM (inactive) | 81.7 µM (inactive) | 13.1 µM (inactive) | 14.1 µM (inactive) | 25.3 µM (inactive) | 19.6 µM (inactive) | 48.8 µM (inactive) | 22.4 µM (inactive) | 30.3 µM (inactive) | 26.2 µM (inactive)
12 | CC(=O)NCC1OC2COC(c3ccccc3)OC2C(NC(=O)c2ccccc2)C1OC(=O)c1ccccc1 (configuration not stated) | > 100 µM (inactive) | > 100 µM (inactive) | > 100 µM (inactive) | 85.5 µM (inactive) | > 100 µM (inactive) | > 100 µM (inactive) | – | > 100 µM (inactive) | > 100 µM (inactive) | > 100 µM (inactive) | 35 µM (inactive) | > 100 µM (inactive) | > 100 µM (inactive) | > 100 µM (inactive) | > 100 µM (inactive) | > 100 µM (inactive) | > 100 µM (inactive) | > 100 µM (inactive) | > 100 µM (inactive)
13 | CN(C)c1ccc(/C=C2\N=C(N/N=C/c3ccc(N(C)C)cc3)NC2=O)cc1 | > 100 µM (inactive) | – | > 100 µM (inactive) | 29.4 µM (inactive) | > 100 µM (inactive) | 80.4 µM (inactive) | 47.9 µM (inactive) | 88.7 µM (inactive) | > 100 µM (inactive) | 28.1 µM (inactive) | 7.6 µM (inactive) | > 100 µM (inactive) | 58.2 µM (inactive) | 22.8 µM (inactive) | 31.4 µM (inactive) | 51.5 µM (inactive) | > 100 µM (inactive) | > 100 µM (inactive) | 61.1 µM (inactive)
14 | O=C1C=CC(=O)N1n1c(-c2ccccc2)n[nH]c1=O | > 100 µM (inactive) | – | – | > 100 µM (inactive) | > 100 µM (inactive) | > 100 µM (inactive) | > 100 µM (inactive) | > 100 µM (inactive) | > 100 µM (inactive) | > 100 µM (inactive) | > 100 µM (inactive) | > 100 µM (inactive) | > 100 µM (inactive) | > 100 µM (inactive) | > 100 µM (inactive) | > 100 µM (inactive) | > 100 µM (inactive) | > 100 µM (inactive) | –
15 | Nc1ccc(CCSSCCc2ccc(N)cc2)cc1 | 25.5 µM (inactive) | 21.9 µM (inactive) | 30 µM (inactive) | – | 16.2 µM (inactive) | 18.4 µM (inactive) | 12.9 µM (inactive) | 30 µM (inactive) | 55.2 µM (inactive) | 28.3 µM (inactive) | 21.8 µM (inactive) | 23.2 µM (inactive) | 39 µM (inactive) | 41.1 µM (inactive) | 39.3 µM (inactive) | 25.7 µM (inactive) | 29.6 µM (inactive) | 26.4 µM (inactive) | 30.3 µM (inactive)
16 | CC1=NN(C(=O)CC(=O)Nc2ccc(C)cc2)C(=O)C1/N=N/c1ccc(C(=O)O)cc1 (configuration not stated) | > 100 µM (inactive) | 69.3 µM (inactive) | > 100 µM (inactive) | > 100 µM (inactive) | 85.7 µM (inactive) | > 100 µM (inactive) | > 100 µM (inactive) | > 100 µM (inactive) | > 100 µM (inactive) | > 100 µM (inactive) | > 100 µM (inactive) | > 100 µM (inactive) | > 100 µM (inactive) | > 100 µM (inactive) | > 100 µM (inactive) | – | > 100 µM (inactive) | > 100 µM (inactive) | > 100 µM (inactive)
